Read-outs that look alike come from different tables or passages of the source.
Molecular target: T1, recombinant human SIRT1 (Homo sapiens, UniProt Q96EB6)
T1 sequence (Q96EB6 1-747): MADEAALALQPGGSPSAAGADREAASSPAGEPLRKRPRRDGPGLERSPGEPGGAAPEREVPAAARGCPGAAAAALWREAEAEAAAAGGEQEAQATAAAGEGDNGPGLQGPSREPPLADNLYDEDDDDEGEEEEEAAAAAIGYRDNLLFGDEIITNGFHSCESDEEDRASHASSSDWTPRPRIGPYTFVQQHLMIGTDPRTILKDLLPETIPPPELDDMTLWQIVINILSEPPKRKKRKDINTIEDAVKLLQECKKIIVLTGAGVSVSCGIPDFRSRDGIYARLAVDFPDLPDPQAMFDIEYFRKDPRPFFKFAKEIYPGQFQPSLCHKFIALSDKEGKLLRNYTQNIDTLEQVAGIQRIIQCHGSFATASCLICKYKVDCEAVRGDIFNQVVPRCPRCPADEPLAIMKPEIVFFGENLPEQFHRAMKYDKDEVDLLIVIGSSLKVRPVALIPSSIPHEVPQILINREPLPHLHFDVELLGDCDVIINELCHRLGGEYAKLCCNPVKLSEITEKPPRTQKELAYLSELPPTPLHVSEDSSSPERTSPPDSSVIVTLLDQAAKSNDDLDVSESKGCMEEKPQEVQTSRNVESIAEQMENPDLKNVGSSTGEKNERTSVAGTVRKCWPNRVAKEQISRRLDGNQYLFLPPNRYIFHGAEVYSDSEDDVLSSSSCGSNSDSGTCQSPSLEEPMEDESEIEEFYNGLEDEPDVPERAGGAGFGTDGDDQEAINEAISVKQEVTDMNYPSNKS
Test: SIRT1 fluorescent deacetylation assay (p53-382 acetylated peptide)
Assay type: biochemical

[1] = 25 μM NAD+, 25 μM p53-382 acetylated peptide

## Oc1ccc(/C=C/c2cc(O)cc(O)c2)cc1 [Resveratrol, 3,5,4′-Trihydroxy-trans-stilbene]
5 μM resveratrol, 50 μM nicotinamide
  apparent Km for NAD+ and acetylated substrate in presence of nicotinamide: raised
[1]
  concentration at which the activating effect doubled the rate: ~11 µM
  concentration at which the activating effect was essentially saturated: 100 µM
25 μM NAD+, 25 μM p53-382 acetylated peptide, compounds at 100 μM
  SIRT1 stimulating activity (in words): most active compound overall
100 μM resveratrol
  effect on the two Vmax determinations: no significant effect
100 μM resveratrol, 1 mM acetylated peptide
  lowering of Km for NAD+: over 5 fold
100 μM resveratrol, 1 mM p53-382 acetylated peptide
  Vmax (+resveratrol), NAD+ varied: 1749 AFU/min.
100 μM resveratrol, 3 mM NAD+
  Vmax (+resveratrol), acetylated peptide varied: 926 AFU/min.
  decrease of acetylated peptide Km: 35 fold
20 and 100 μM resveratrol, 50 μM nicotinamide
  Km for NAD+ and acetylated peptide in presence of nicotinamide: lowers the Km for both NAD^+ and acetylated peptide
read-out: Km for NAD+ (+resveratrol), 100 μM resveratrol, 1 mM p53-382 acetylated peptide
  Km: 101 µM
read-out: Km for p53-382 acetylated peptide (+resveratrol), 100 μM resveratrol, 3 mM NAD+
  Km: 1.8 µM

Source: patent US20060276393A1, “Novel compositions for preventing and treating neurodegenerative and blood coagulation disorders” (Sirtris Pharmaceuticals, Inc., priority 2005, published 2006)
